The values that follow come from patent US20080221083A1, “Heterobicyclic metalloprotease inhibitors” (priority 2006, published 2008).

By IC50 is commonly meant the concentration that gives 50% inhibition.

Assay [1] has as its target T1, catalytic domain of MMP-3 enzyme (Homo sapiens, UniProt P08254).
T1 construct: the catalytic domain of MMP-3 enzyme (Biomol, Cat. No. SE-109); purchased Biomol SE-109
Nature of the assay: Assay for determining MMP-3 inhibition. The note with it: fluorescent substrate NFF-3, pH 6.0; read-out: Summary of MMP-3 Activity for Compounds (IC50 MMP-3), Group. In kind it is biochemical. The procedure:
Assay for Determining MMP-3 Inhibition
The typical assay for MMP-3 activity is carried out in assay buffer comprised of 50 mM MES, pH 6.0, 10 mM CaCl2 and 0.05% Brij-35. Different concentrations of tested compounds are prepared in assay buffer in 50 μl aliquots. 10 μl of a 100 nM stock solution of the catalytic domain of MMP-3 enzyme (Biomol, Cat. No. SE-109) is added to the compound solution. The mixture of enzyme and compound in assay buffer is thoroughly mixed and incubated for 10 min at room temperature. Upon the completion of incubation, the assay is started by addition of 40 μl of a 12.5 μM stock solution of NFF-3 fluorescent substrate (Calbiochem, Cat. No. 480455). The time-dependent increase in fluorescence is measured at the 330 nm excitation and 390 nm emission by an automatic plate multireader. The IC50 values are calculated from the initial reaction rates.

The target in assay [2] is T2, catalytic domain of MMP-13 enzyme (Homo sapiens, UniProt P45452).
T2 construct: catalytic domain of MMP-13 enzyme (produced by Alantos or commercially available from Invitek (Berlin), Cat. No. 30100812); purchased Invitek (Berlin) 30100812
Briefly: Assay for determining MMP-13 inhibition. In kind it is biochemical. The note with it: MMP-13 fluorescent substrate, pH 7.5; read-out: Summary of MMP-13 Activity for Compounds (IC50 MMP-13), Group. On the procedure:
Assay for Determining MMP-13 Inhibition
The typical assay for MMP-13 activity is carried out in assay buffer comprised of 50 mM Tris, pH 7.5, 150 mM NaCl, 5 mM CaCl2 and 0.05% Brij-35. Different concentrations of tested compounds are prepared in assay buffer in 50 μl aliquots. 10 μl of a 50 nM stock solution of catalytic domain of MMP-13 enzyme (produced by Alantos or commercially available from Invitek (Berlin), Cat. No. 30100812) is added to the compound solution. The mixture of enzyme and compound in assay buffer is thoroughly mixed and incubated for 10 min at room temperature. Upon the completion of incubation, the assay is started by addition of 40 μl of a 12.5 μM stock solution of MMP-13 fluorescent substrate (Calbiochem, Cat. No. 444235). The time-dependent increase in fluorescence is measured at the 320 nm excitation and 390 nm emission by automatic plate multireader. The IC50 values are calculated from the initial reaction rates.

Each structure is given as a SMILES string.

T1 sequence (P08254 100-272 limits assumed): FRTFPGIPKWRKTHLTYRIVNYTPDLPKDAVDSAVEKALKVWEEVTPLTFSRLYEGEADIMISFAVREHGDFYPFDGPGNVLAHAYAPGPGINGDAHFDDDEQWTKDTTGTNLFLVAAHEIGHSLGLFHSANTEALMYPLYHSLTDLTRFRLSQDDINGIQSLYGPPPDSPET

As to `O=C1COc2ccc(CNC(=O)c3ncnc4c(C(=O)N5CCC(O)CC5)c[nH]c34)cc2N1` [Example 42], the IC50 in assay [1] was 101 to 20000 nM.
Turning to `O=C1COc2ccc(CNC(=O)c3ncnc4c(C(=O)NCC5CCCCC5)c[nH]c34)cc2N1` [Example 35], the figures for the half-inhibitory concentration (IC50) in assay [2] and in assay [1] were 101 to 20000 nM and 3 to 100 nM, respectively.
Turning to `O=C1COc2ccc(CNC(=O)c3ncnc4c(C(=O)NCC5(O)CCCCC5)c[nH]c34)cc2N1` [Example 40], the 50% inhibitory concentration (IC50) in assay [2] and in assay [1] was 101 to 20000 nM each time.
For the molecule `CNC(=O)c1c[nH]c2c(C(=O)NCc3ccc4c(c3)NC(=O)CO4)ncnc12` [Example 41], in assay [1], the half-inhibitory concentration (IC50) was in the range of 101 to 20000 nM.
On to `CC(C)(CO)NC(=O)c1c[nH]c2c(C(=O)NCc3ccc4c(c3)NC(=O)CO4)ncnc12` [Example 51], for which the half-inhibitory concentration (IC50) in assay [2] lay within 101 to 20000 nM; in assay [1], 3 to 100 nM.
Consider `C[C@H](NC(=O)c1c[nH]c2c(C(=O)NCc3ccc4c(c3)NC(=O)CO4)ncnc12)c1ccccc1` [Example 61], for which, in assay [1], the IC50 fell in the range of 101 to 20000 nM.
Same read-out and setting: for `C[C@@H](NC(=O)c1c[nH]c2c(C(=O)NCc3ccc4c(c3)NC(=O)CO4)ncnc12)c1ccccc1` [Example 60] the value was 101 to 20000 nM.
Same read-out and setting: under `CCCN(CCC)C(=O)c1c[nH]c2c(C(=O)NCc3ccc4c(c3)NC(=O)CO4)ncnc12` [Example 48] stands 3 to 100 nM.
In the case of `CCOC(=O)CC1C(=O)NCCN1C(=O)c1c[nH]c2c(C(=O)NCc3ccc4c(c3)NC(=O)CO4)ncnc12` (stereo not shown) [Example 63], in assay [1], the IC50 was in the range of 101 to 20000 nM.
Consider `O=C1COc2ccc(CNC(=O)c3ncnc4c(C(=O)NCc5ccccc5)c[nH]c34)cc2N1` [Example 34], for which the IC50 in assay [2] lay within 101 to 20000 nM; in assay [1], 3 to 100 nM.
On to `CCCCN(CC)C(=O)c1c[nH]c2c(C(=O)NCc3ccc4c(c3)NC(=O)CO4)ncnc12` [Example 47], for which the IC50 in assay [1] is 3 to 100 nM.
Turning to `O=C(NCc1ccccc1)c1c[nH]c2c(C(=O)NCc3ccc(F)cc3)ncnc12` [Example 6], the IC50 in assay [2] fell in the range of 101 to 20000 nM; in assay [1], 3 to 100 nM.
`COc1cccc(CNC(=O)c2c[nH]c3c(C(=O)NCc4ccc5c(c4)NC(=O)CO5)ncnc23)c1` [Example 45]: the 50% inhibitory concentration (IC50) in assay [2] and in assay [1] was 101 to 20000 nM throughout.
With `O=C1COc2ccc(CNC(=O)c3ncnc4c(C(=O)NC5CCCC5)c[nH]c34)cc2N1` [Example 33], the IC50 in assay [1] was 3 to 100 nM.
Consider `COC(=O)[C@@H]1C[C@@H](O)CN1C(=O)c1c[nH]c2c(C(=O)NCc3ccc4c(c3)NC(=O)CO4)ncnc12` [Example 52], for which the concentration for half-maximal inhibition (IC50) was in the range of 101 to 20000 nM in assay [2] and 3 to 100 nM in assay [1].
With `CN(Cc1ccccc1)C(=O)c1c[nH]c2c(C(=O)NCc3ccc4c(c3)NC(=O)CO4)ncnc12` [Example 46], the values for the IC50 in assay [2] and in assay [1] were 101 to 20000 nM and 3 to 100 nM, respectively.
As for `O=C1CN(C(=O)c2c[nH]c3c(C(=O)NCc4ccc5c(c4)NC(=O)CO5)ncnc23)CCN1` [Example 62], the concentration for half-maximal inhibition (IC50) lay in the range of 101 to 20000 nM in assay [2] and 3 to 100 nM in assay [1].
As for `CC(C)NC(=O)c1c[nH]c2c(C(=O)NCc3ccc4c(c3)NC(=O)CO4)ncnc12` [Example 32], the 50% inhibitory concentration (IC50) in assay [1] was in the range of 101 to 20000 nM.
In the case of `CCC(CC)NC(=O)c1c[nH]c2c(C(=O)NCc3ccc4c(c3)NC(=O)CO4)ncnc12` [Example 31], the concentration for half-maximal inhibition (IC50) in assay [2] and in assay [1] was 101 to 20000 nM throughout.
Regarding `CC(C)(C)OC(=O)N1CC2CC1CN2C(=O)c1c[nH]c2c(C(=O)NCc3ccc4c(c3)NC(=O)CO4)ncnc12` (stereo not shown) [Example 50], the values for the IC50 in assay [2] and in assay [1] were 101 to 20000 nM and 3 to 100 nM, respectively.
